According to ChEMBL document CHEMBL1201862, “PubChem BioAssay data set” (2004):
The source made the active and inactive calls.

Key:
[1] = cells; format: functional, cell-based
[2] = cells; format: functional, cell-based; remark: listed apart in the source
[3] = biological target: ADP-ribosylation factor GTPase-activating protein 1 (Rattus norvegicus, UniProt Q62848); test: Fluorescence polarization-based biochemical high throughput dose response screening assay to identify inhibitors of ADP-ribosylation factor GTPase activating protein 1 (ARFGAP1).; format: functional
ADP-ribosylation factor GTPase-activating protein 1, sequence (Q62848 whole entry, the tested form may be a part): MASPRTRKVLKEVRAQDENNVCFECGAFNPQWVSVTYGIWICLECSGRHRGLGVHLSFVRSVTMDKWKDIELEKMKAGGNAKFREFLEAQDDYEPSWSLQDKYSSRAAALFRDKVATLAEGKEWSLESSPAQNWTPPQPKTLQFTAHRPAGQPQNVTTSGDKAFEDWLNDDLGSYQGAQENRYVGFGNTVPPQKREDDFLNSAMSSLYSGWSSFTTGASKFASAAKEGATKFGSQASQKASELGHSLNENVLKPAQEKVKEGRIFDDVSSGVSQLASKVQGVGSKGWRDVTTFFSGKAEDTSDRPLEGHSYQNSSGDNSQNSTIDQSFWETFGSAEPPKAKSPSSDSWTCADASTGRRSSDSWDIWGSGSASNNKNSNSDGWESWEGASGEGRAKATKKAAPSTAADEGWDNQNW

[4] = biological target: Arf-GAP with SH3 domain, ANK repeat and PH domain-containing protein 1 (Homo sapiens, UniProt Q9ULH1); format: functional;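 also: biochemical fluorescence polarization dose–response screen measuring inhibition of ASAP1; ASAP1 GAP domain stimulating GTP hydrolysis by truncated human ARF1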
Arf-GAP with SH3 domain, ANK repeat and PH domain-containing protein 1, sequence (Q9ULH1 whole entry, the tested form may be a part): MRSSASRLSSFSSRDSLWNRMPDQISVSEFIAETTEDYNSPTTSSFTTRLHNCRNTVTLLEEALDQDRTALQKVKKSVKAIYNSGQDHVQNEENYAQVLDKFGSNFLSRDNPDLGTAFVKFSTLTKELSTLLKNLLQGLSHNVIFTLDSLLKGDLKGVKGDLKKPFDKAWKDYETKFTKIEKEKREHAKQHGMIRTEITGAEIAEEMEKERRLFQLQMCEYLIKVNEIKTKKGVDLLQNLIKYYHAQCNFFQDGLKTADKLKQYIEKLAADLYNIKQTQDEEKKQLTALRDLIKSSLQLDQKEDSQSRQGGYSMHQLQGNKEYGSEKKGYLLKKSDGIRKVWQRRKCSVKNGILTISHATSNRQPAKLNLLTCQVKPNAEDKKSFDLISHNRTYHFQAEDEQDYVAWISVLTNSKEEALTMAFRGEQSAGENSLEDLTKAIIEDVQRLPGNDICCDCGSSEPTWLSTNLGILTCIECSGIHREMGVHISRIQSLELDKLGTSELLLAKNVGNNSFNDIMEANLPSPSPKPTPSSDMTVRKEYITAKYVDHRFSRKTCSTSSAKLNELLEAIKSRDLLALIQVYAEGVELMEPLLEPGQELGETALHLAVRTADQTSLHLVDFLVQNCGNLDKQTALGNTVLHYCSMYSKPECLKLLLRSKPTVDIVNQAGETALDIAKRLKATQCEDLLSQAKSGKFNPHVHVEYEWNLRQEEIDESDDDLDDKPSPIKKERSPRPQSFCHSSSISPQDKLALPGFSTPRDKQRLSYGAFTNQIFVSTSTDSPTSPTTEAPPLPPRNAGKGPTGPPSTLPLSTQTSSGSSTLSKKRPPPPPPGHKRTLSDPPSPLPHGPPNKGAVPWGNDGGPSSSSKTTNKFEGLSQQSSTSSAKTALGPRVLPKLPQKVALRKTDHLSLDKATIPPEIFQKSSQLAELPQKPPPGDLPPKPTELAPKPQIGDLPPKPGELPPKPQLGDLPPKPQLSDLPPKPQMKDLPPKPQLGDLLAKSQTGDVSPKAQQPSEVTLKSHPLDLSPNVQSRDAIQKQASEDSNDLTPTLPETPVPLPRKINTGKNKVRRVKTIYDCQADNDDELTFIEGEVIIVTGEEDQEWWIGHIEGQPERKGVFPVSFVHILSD

[5] = cells; format: functional, cell-based; remark: listed apart in the source
[6] = biological target: T1, Trace amine-associated receptor 1 (Homo sapiens, UniProt Q96RJ0); test: Fluorescence-based cell-based high throughput dose response assay to identify agonists of the human trace amine associated receptor 1 (TAAR1).; format: functional
T1 sequence (Q96RJ0 whole entry): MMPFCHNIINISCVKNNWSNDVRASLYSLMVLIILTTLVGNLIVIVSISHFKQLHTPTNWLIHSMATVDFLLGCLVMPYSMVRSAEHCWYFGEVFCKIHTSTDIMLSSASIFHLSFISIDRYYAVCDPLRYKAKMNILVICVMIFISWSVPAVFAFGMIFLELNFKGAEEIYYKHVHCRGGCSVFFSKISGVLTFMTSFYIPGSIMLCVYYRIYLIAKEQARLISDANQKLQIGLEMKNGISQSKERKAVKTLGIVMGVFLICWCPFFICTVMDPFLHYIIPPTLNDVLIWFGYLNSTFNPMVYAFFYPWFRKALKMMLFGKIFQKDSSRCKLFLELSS

[7] = biological target: T1, Trace amine-associated receptor 1; test: Counterscreen for agonists of the human trace amine associated receptor 1 (hTAAR1): Fluorescence-based cell-based high throughput dose response assay to identify hTAAR1 agonist that also desensitize TAAR1 receptor response.; format: functional
[8] = cells; format: functional, cell-based; remark: listed apart in the source
[9] = biological target: Low molecular weight phosphotyrosine protein phosphatase (Homo sapiens, UniProt P24666); format: functional; settings: read-out: IC50_Mean;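 also: Dose-response confirmation assay measuring inhibition of LMPTP enzyme activity by fluorescence intensity read-out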
Low molecular weight phosphotyrosine protein phosphatase, sequence (P24666 whole entry): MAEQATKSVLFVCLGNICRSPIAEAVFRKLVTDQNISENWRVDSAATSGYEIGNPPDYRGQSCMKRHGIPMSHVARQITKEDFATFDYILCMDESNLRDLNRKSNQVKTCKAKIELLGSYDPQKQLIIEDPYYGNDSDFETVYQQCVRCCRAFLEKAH

[10] = loss of viability in HepG2 cells – cell-based, CellTiter-Glo, cherry-picked, cytotoxicity control for Shn3 inhibitor project, dose response (AID 624134); format: functional
[11] = non-specific 3'UTR reporter inhibition in Clone20-Shn3RL – cell-based, Renilla luciferase, cherry-picked, counter-screen for Shn3 inhibitor project, dose response (AID 624133); format: functional
[12] = reduction of Shn3 3'UTR-driven luciferase in osteoblasts – cell-based, Clone20 osteoblasts, firefly luciferase, cherry-picked, dose response (AID 624132); format: functional;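 also: firefly luciferase luminescence from reporter carrying the Shn3 3'UTR in osteoblasts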
[13] = biological target: Fructose-bisphosphate aldolase (Mycobacterium tuberculosis, UniProt P9WQA3); test: Fluorescence-based biochemical high throughput dose response assay for inhibitors of the fructose-bisphosphate aldolase (FBA) of M. tuberculosis.; format: functional
[14] = NIH-3T3 fibroblast cytotoxicity, dose response, cytotoxicity control, cell-based, fluorescence, Alamar Blue, secondary assay (AID 2327); format: functional;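 also: NIH-3T3 mouse fibroblasts cultured with fluconazole at 8 µg/mL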
[15] = Counterscreen for activators of the function of SWI/SNF related, matrix associated, actin dependent regulator of chromatin, subfamily a, member 2 (SMARCA2, BRM): Luminescence-based cell-based high throughput dose response assay to identify non-selective compounds using the VP16 reporter assay.; format: functional
[16] = biological target: SWI/SNF-related matrix-associated actin-dependent regulator of chromatin subfamily A member 2 (Homo sapiens, UniProt P51531); test: Luminescence-based cell-based high throughput dose response assay to identify activators of the function of SWI/SNF related, matrix associated, actin dependent regulator of chromatin, subfamily a, member 2 (SMARCA2, BRM).; format: functional
SWI/SNF-related matrix-associated actin-dependent regulator of chromatin subfamily A member 2, sequence (P51531 whole entry): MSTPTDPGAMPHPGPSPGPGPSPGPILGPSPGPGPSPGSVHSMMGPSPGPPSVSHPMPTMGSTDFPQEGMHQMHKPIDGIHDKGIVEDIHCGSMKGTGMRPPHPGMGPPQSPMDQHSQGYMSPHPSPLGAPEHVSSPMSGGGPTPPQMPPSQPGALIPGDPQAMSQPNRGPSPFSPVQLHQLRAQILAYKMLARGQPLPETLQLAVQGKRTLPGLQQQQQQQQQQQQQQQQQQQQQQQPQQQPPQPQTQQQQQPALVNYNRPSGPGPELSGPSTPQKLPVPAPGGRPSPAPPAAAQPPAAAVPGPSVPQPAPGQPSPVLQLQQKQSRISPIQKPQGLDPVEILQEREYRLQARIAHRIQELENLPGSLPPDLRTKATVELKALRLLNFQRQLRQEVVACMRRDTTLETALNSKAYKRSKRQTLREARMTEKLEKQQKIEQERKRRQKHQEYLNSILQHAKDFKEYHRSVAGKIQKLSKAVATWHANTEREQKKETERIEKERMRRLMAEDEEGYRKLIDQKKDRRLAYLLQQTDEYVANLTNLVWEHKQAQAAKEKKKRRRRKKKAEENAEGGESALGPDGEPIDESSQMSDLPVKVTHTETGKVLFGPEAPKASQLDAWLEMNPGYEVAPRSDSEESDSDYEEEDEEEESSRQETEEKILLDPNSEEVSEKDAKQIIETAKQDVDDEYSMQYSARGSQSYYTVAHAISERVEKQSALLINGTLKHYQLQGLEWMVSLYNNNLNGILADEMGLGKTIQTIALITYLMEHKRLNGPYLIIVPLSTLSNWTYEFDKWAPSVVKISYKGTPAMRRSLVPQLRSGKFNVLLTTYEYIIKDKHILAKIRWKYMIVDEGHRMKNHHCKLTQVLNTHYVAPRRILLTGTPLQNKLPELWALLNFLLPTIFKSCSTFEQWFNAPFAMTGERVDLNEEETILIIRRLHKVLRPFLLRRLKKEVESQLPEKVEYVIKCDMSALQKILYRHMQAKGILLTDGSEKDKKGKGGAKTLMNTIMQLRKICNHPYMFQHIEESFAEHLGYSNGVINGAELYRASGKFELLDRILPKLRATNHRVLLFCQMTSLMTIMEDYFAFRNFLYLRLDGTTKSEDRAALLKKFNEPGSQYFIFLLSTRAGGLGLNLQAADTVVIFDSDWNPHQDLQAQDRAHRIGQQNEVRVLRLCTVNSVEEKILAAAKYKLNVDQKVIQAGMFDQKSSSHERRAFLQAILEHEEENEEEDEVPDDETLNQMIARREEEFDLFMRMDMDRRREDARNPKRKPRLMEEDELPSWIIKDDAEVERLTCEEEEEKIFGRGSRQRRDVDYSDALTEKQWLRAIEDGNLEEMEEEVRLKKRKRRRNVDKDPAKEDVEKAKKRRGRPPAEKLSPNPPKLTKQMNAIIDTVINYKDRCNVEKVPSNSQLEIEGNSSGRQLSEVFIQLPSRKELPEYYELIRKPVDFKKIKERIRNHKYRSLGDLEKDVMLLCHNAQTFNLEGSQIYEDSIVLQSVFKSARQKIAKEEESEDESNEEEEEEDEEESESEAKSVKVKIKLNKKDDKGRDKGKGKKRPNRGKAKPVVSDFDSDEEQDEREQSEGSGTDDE

[17] = fluconazole-exposed Candida albicans growth modulators – fluorescence, retest, confirmation (AID 2467); format: functional, cell-based
[18] = intracellular Trypanosoma cruzi inhibitors in host cells – cell-based, plate reader, cherry-pick samples, set 3, dose response (AID 651818); format: functional;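 also: compounds incubated with infected cells for about four days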
[19] = biological target: Disintegrin and metalloproteinase domain-containing protein 17 (Homo sapiens, UniProt P78536); test: inhibition of ADAM17 substrate cleavage – biochemical, quenched FRET substrate, counter-screen for ADAM10 exosite inhibitor project, dose response (AID 743253)
[20] = potency of ADAM10 substrate cleavage blockers – biochemical, QFRET, dose response (AID 743254);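 also: ADAM10 enzyme with the DM2 quenched FRET peptide as substrate; EDANS fluorescence gain as the protease cuts the substrate; inhibitor potency against ADAM10 proteolytic activity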
[21] = biological target: Nuclear receptor subfamily 5 group A member 2 (Homo sapiens, UniProt O00482); format: functional, cell-based;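 also: HEK293T cells transfected with LRH-1 and a StAR promoter luciferase reporter; potency for inhibitors that lower LRH-1 driven reporter light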
Nuclear receptor subfamily 5 group A member 2, sequence (O00482 whole entry): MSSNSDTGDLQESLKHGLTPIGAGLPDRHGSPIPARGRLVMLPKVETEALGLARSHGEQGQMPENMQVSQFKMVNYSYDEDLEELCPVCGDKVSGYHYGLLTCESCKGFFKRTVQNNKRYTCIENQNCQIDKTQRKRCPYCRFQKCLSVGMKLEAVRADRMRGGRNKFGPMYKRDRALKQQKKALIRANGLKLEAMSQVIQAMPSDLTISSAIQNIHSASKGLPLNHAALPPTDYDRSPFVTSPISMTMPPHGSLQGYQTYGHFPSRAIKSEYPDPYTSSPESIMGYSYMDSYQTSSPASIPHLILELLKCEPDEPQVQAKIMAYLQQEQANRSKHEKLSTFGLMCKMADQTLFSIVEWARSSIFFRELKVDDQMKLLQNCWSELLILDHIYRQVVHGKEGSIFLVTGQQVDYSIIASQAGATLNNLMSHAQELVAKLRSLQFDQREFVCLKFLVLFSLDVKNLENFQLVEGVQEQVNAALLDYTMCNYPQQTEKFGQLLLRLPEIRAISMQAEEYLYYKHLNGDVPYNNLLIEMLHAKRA

[22] = biological target: Steroidogenic factor 1 (Homo sapiens, UniProt Q13285); test: Counterscreen for inverse agonists of the liver receptor homolog-1 (LRH-1; NR5A2): Luminescence-based cell-based high throughput dose response assay to identify inverse agonists of the Steroidogenic Factor 1 Nuclear Receptor (SF1; NR5A1).; format: functional
Steroidogenic factor 1, sequence (Q13285 whole entry): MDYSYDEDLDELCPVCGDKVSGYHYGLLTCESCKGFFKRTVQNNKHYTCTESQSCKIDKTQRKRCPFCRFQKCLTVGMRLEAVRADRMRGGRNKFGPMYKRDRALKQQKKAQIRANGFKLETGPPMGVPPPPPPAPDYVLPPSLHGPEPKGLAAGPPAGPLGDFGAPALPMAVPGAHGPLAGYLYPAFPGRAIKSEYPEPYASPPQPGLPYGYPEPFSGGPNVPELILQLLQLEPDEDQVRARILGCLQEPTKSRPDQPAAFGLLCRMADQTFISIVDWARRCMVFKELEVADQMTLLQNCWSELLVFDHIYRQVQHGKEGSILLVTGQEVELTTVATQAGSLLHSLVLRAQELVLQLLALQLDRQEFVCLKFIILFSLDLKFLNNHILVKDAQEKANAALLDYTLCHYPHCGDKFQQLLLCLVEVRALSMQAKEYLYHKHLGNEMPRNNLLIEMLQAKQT

[23] = nonselective StAR promoter luciferase inhibitors – cell-based, luminescence, luciferase reporter, counter-screen for LRH-1 inverse agonist project, dose response (AID 651969); format: functional
[24] = tested on: HEK293; test: optical interference in Abeta FP readout, dose response, artefact control for IDE activator project, biochemical, fluorescence polarization (AID 588442); format: functional, cell-based; settings: Homo sapiens
[25] = biological target: T2, Insulin-degrading enzyme (Homo sapiens, UniProt P14735); test: cellular IDE activation of Abeta substrate cleavage – fluorescence polarization, HEK cells, dose response (AID 588439); format: functional, cell-based
T2 sequence (P14735 whole entry): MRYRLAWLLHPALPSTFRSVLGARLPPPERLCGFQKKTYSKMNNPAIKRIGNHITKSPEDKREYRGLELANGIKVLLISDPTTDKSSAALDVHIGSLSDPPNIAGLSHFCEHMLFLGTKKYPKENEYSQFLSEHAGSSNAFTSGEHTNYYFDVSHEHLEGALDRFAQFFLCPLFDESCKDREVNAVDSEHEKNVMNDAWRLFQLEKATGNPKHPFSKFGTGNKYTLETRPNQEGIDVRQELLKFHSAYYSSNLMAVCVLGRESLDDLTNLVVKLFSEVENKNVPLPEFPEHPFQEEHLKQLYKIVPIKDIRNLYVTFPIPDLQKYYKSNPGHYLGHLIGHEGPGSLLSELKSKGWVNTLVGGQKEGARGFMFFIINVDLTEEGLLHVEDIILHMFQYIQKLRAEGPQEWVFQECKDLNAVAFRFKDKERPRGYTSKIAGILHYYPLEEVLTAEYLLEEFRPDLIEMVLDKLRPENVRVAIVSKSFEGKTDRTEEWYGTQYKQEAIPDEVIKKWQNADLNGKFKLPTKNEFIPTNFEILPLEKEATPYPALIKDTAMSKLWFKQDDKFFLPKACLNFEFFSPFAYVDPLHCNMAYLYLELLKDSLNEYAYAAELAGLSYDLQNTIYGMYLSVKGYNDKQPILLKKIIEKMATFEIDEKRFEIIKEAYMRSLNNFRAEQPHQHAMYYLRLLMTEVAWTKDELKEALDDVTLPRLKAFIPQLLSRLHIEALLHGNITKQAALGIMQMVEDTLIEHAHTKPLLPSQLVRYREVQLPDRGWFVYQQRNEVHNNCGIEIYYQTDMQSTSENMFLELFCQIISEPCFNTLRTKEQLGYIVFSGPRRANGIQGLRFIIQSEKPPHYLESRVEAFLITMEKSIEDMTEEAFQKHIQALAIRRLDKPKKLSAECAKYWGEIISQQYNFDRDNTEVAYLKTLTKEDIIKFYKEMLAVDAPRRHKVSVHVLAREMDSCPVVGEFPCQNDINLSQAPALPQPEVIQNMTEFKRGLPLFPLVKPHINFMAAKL

[26] = tested on: HEK293; test: membrane integrity loss in HEK cells – cell-based, fluorescence, cytotoxicity control for IDE activator project, dose response (AID 588440); format: functional; settings: Homo sapiens;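 also: cytotoxicity by LDH release measuring loss of membrane integrity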
[27] = biological target: T2, Insulin-degrading enzyme; test: recombinant IDE activation, cell-free – biochemical, fluorescence polarization, counter-screen for IDE activator project, dose response (AID 588681)
[28] = biological target: Paired box protein Pax-8 (Homo sapiens, UniProt Q06710); test: PAX8 transcriptional activity inhibition in RMG-I – RMG-I cells, luciferase, cherry-pick, dose response (AID 687027); format: functional, cell-based;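 also: luciferase reporter driven by Pax8 target thyroperoxidase promoter measured by SteadyGlo luminescence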
Paired box protein Pax-8, sequence (Q06710 whole entry): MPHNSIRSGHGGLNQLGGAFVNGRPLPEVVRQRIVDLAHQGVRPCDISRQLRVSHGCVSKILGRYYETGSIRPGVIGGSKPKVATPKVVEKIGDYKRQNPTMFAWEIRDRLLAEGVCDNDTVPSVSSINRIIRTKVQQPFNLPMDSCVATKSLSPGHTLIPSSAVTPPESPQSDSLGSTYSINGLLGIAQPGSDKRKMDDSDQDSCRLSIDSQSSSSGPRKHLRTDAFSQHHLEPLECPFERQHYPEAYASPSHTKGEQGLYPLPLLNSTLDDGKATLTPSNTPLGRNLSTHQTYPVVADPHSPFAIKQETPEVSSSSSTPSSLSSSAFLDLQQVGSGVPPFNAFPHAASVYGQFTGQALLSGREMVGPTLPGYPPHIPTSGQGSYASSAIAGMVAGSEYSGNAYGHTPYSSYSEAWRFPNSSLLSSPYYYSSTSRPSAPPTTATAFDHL

[29] = general cell-killing toxicity readout – plate reader, dry powder samples, cytotoxicity control for PAX8 inhibitor project, dose response (AID 743021); format: functional, cell-based
[30] = A2780 cell killing – plate reader, dry powder samples, cytotoxicity control, dose response (AID 743046); format: functional, cell-based
[31] = OVCAR-3 cell viability loss – plate reader, dry powder samples, PAX8 inhibitor project, dose response (AID 743044); format: functional, cell-based

Cc1ccc2nc(SCC(=O)N3CCCCC3)nc(=O)n2c1
EC50 [1]: > 350 µM (not active)
EC50 [2]: > 350 µM (not active)
IC50 [3]: 32 µM (inactive)
IC50 [4]: 45.9 µM (inactive)

COc1ccc2c(c1)C(SCC(=O)NCCc1ccccc1)CC(C)(C)O2 (stereo not drawn)
IC50 [5]: > 29.9 µM (inactive)
EC50 [6]: 1.04 µM (active)
IC50 [7]: 2.31 µM (active)
EC50 [8]: > 29.9 µM (inactive)

COc1ccccc1CNc1nc(Nc2cccc(-c3cnco3)c2)c2sccc2n1
IC50 [9]: 42.4 µM (inactive)
AC50 [10]: 45.6 µM (active)
AC50 [11]: 9.22 µM (active)
AC50 [12]: 5.61 µM (active)

Cc1cc(OC(C)C(=O)NCCCN2CCOCC2)c2c(C)cc(=O)oc2c1 (stereo not drawn)
IC50 [13]: 1.32 µM (active)

COc1ccc(NC(=O)c2ccc([N+](=O)[O-])o2)cc1
EC50 [14]: 28.2 µM (active)
EC50 [15]: > 91.1 µM (inactive)
EC50 [16]: > 91.1 µM (inactive)
EC50 [17]: 3.55 µM (active)

C[C@@H]1CCCCO[C@H](CN(C)S(=O)(=O)c2ccc(F)cc2)[C@@H](C)CN([C@H](C)CO)C(=O)c2cc(NC(=O)Nc3ccc(C(F)(F)F)cc3)ccc2O1
AC50 [18]: 3.61 µM (active)
IC50 [19]: > 69.5 µM (inactive)
IC50 [20]: > 69.5 µM (inactive)

O=C(COc1ccc(S(=O)(=O)N2CCCC2)cc1Cl)Nc1ccc2c(c1)OCO2
IC50 [21]: 35.9 µM (inactive)
IC50 [22]: 9.54 µM (active)
IC50 [23]: 35.9 µM (inactive)

COc1ccc(-n2nnnc2SCC(=O)c2ccc3c(c2)OCCO3)c(OC)c1
IC50 [3]: 17.7 µM (inactive)
IC50 [4]: 12.6 µM (inactive)

Cc1nc2ccccc2c(=O)n1-c1ccc(C(=O)O)cc1
EC50 [24]: > 55.9 µM (inactive)
EC50 [25]: > 54.7 µM (inactive)
IC50 [26]: > 89.2 µM (inactive)
EC50 [27]: > 54.7 µM (inactive)

CO[C@@H]1CN(C)C(=O)c2cc(NC(=O)c3ccc(-c4ccccc4)cc3)ccc2OC[C@H](C)NC[C@H]1C
AC50 [28]: 25.3 µM (active)
AC50 [29]: 40.4 µM (active)
AC50 [30]: 37.2 µM (active)
AC50 [31]: 42.2 µM (active)
